Assay results from patent publication EP0666841B1, “SUCCINOYLAMINO HYDROXYETHYLAMINO SULFAMIC ACID DERIVATIVES USEFUL AS RETROVIRAL PROTEASE INHIBITORS” (G.D. SEARLE & CO., priority 1992, dated 1994).

Biological target: T1, HIV protease (Human immunodeficiency virus type 1 group M subtype B, UniProt P04585)
T1 construct: HIV protease is diluted in the assay buffer to a final enzyme concentration of 12.3 nanomolar, based on a molecular weight of 10,780
Assay: HIV protease enzyme assay (fluorescence, peptide substrate)
Type: biochemical
Conditions: read-out: IC50 or % inhibition
Description: The compounds of the present invention are effective HIV protease inhibitors. Utilizing an enzyme assay as described below, the compounds set forth in the examples herein disclosed inhibited the HIV enzyme. The preferred compounds of the present invention and their calculated IC50 (inhibiting concentration 50%, i.e., the concentration at which the inhibitor compound reduces enzyme activity by 50%) values are shown in Table 17. The enzyme method is described below. The substrate is 2-Ile-Nle-Phe(p-NO2)-Gln-ArgNH2. The positive control is MVT-101 (Miller, M. et al, Science, 246, 1149 (1989)] The assay conditions are as follows: Assay buffer: 20 mM sodium phosphate, pH 6.4 20% glycerol 1 mM EDTA 1 mM DTT 0.1% CHAPS
The above described substrate is dissolved in DMSO, then diluted 10 fold in assay buffer. Final substrate concentration in the assay is 80 µM.
HIV protease is diluted in the assay buffer to a final enzyme concentration of 12.3 nanomolar, based on a molecular weight of 10,780.
The final concentration of DMSO is 14% and the final concentration of glycerol is 18%. The test compound is dissolved in DMSO and diluted in DMSO to 10x the test concentration; 10µl of the enzyme preparation is added, the materials mixed and then the mixture is incubated at ambient temperature for 15 minutes. The enzyme reaction is initiated by the addition of 40µl of substrate. The increase in fluorescence is monitored at 4 time points (0, 8, 16 and 24 minutes) at ambient temperature. Each assay is carried out in duplicate wells.

## CN(C)S(=O)(=O)N(Cc1ccc(F)cc1)C[C@@H](O)[C@H](Cc1ccccc1)NC(=O)OCc1ccccc1 [B]
  inhibition at 10 µM: 55%

## CC(C)(C)NS(=O)(=O)N(Cc1ccccc1)C[C@@H](O)[C@H](Cc1ccccc1)NC(=O)OCc1ccccc1 [H]
  inhibition at 10 µM: 48%

## CC(C)CN(C[C@@H](O)[C@H](Cc1ccccc1)NC(=O)OCc1ccccc1)S(=O)(=O)NC(C)C [C]
  inhibition at 1 µM: 59%

## CC(C)(C)NS(=O)(=O)N(C[C@@H](O)[C@H](Cc1ccccc1)NC(=O)OCc1ccccc1)C1CCCCC1 [K]
  inhibition at 1 µM: 60%

## CNS(=O)(=O)N(CC(C)C)C[C@@H](O)[C@H](Cc1ccccc1)NC(=O)OCc1ccccc1 [A]
  inhibition at 0.1 µM: 29%

## CC(C)CN(C[C@@H](O)[C@H](Cc1ccccc1)NC(=O)OCc1ccccc1)S(=O)(=O)Nc1ccccc1 [E]
IC50 values printed in nM
  IC50: 70 nM

## CC(C)CN(C[C@@H](O)[C@H](Cc1ccccc1)NC(=O)OCc1ccccc1)S(=O)(=O)N1CCN(C)CC1 [D]
  inhibition at 0.1 µM: 29%

## CC(C)CN(C[C@@H](O)[C@H](Cc1ccccc1)NC(=O)OCc1ccccc1)S(=O)(=O)N1CCCC1 [F]
  inhibition at 0.1 µM: 22%
